Substitutions are numbered along the chain they refer to. Values belong to the molecule of their own block, whether it stands above or below them.
How the values were obtained:
Homo sapiens = species: Homo sapiens; assay: Selectivity ratio of IC50 for AKR1C2 (unknown origin) to IC50 for AKR1C3 (unknown origin)
[1] = molecular target: T1, Aldo-keto reductase family 1 member C1 (Homo sapiens, UniProt Q04828); assay: Inhibition of recombinant AKR1C1 (unknown origin) dehydrogenase activity by measuring NADH formation by spectrophotometry
T1 sequence (Q04828 whole entry): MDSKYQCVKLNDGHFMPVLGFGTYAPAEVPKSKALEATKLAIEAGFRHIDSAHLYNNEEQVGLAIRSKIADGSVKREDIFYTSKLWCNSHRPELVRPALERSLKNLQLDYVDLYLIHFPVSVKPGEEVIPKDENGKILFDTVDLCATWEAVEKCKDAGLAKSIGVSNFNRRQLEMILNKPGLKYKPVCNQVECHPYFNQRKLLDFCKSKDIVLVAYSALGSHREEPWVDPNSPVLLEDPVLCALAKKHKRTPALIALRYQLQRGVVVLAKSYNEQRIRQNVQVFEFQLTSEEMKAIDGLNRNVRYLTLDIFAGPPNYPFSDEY

[2] = molecular target: T2, Aldo-keto reductase family 1 member C1 (Homo sapiens) (UniProt Q04828); assay: Inhibition of recombinant AKR1C1 (unknown origin) dehydrogenase activity at 100 uM by measuring NADH formation by spectrophotometry relative to control
T2 sequence (whole entry): T1 sequence (Q04828 whole entry)

[3] = Stability of compound in SGF assessed as compound remaining after 1 hrs; type: ADME; details: simulated gi fluid
[4] = Stability of compound in SIF assessed as compound remaining after 2 hrs; type: ADME; details: simulated gi fluid
[5] = Half life in BALB/c mouse at 10 mg/kg, po measured upto 24 hrs; type: ADME, organism-based; details: in vivo
[6] = Tmax in BALB/c mouse at 10 mg/kg, po measured upto 24 hrs; type: ADME, organism-based; details: in vivo
[7] = Cmax in BALB/c mouse at 10 mg/kg, po measured upto 24 hrs; type: ADME, organism-based; parameters: dose 10 mg/kg, time < 24 hrs, route po; details: in vivo
[8] = AUC (0 to t) in BALB/c mouse at 10 mg/kg, po measured upto 24 hrs; type: ADME, organism-based; parameters: time < 24 hrs, dose 10 mg/kg, route po; details: in vivo
[9] = AUC (0 to infinity) in BALB/c mouse at 10 mg/kg, po measured upto 24 hrs; type: ADME, organism-based; parameters: time < 24 hrs, dose 10 mg/kg, route po; details: in vivo
[10] = Extrapolated AUC in BALB/c mouse at 10 mg/kg, po measured upto 24 hrs; type: ADME, organism-based; details: in vivo
[11] = Apparent volume of distribution during terminal phase in BALB/c mouse at 10 mg/kg, po measured upto 24 hrs; type: ADME, organism-based; details: in vivo
[12] = Apparent oral clearance in BALB/c mouse at 10 mg/kg, po measured upto 24 hrs; type: ADME, organism-based; details: in vivo
[13] = molecular target: T3, Aldo-keto reductase family 1 member C2 (Homo sapiens, UniProt P52895); assay: Inhibition of recombinant AKR1C2 (unknown origin) dehydrogenase activity by measuring NADH formation by spectrophotometry
T3 sequence (P52895 whole entry): T1 sequence (Q04828 whole entry) with T38V, R47H, L54V, C87S, V151M, R170H, Q172L

[14] = molecular target: T4, Aldo-keto reductase family 1 member C3 (Homo sapiens, UniProt P42330); assay: Inhibition of AKR1C3 (unknown origin)
T4 sequence (P42330 whole entry): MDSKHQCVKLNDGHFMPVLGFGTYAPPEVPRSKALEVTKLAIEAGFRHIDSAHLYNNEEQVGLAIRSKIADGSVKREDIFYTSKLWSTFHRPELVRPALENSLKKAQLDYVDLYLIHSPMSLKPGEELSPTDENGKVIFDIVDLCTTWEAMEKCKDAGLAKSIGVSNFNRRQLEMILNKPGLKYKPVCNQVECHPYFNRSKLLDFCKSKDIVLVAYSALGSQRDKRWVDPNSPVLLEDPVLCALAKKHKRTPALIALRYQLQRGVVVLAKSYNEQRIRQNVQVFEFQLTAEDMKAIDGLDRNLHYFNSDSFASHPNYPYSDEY

[15] = molecular target: T4, Aldo-keto reductase family 1 member C3; assay: Inhibition of recombinant AKR1C3 (unknown origin) dehydrogenase activity by measuring NADH formation by spectrophotometry
[16] = Metabolic stability in mouse plasma assessed as formation of (E)-3-(3-(11,2,4)triazolo(1,5-alpyridin-6-y1)-5-((4-methylbenzy1)-carbamoyl)phenyl)acrylic acid; type: ADME, cell-free
[17] = Stability on mouse plasma assessed as compound remaining measured at 30 mins; type: ADME, cell-free; details: 0.5 h
[18] = Metabolic stability in human liver microsomes assessed as compound degradation by LC-MS/MS analysis; type: ADME, Microsome; details: read-out: Drug degradation
[19] = Metabolic stability in mouse liver microsomes assessed as compound degradation by LC-MS/MS analysis; type: ADME, Microsome; details: read-out: Drug degradation
[20] = Prodrug conversion in human liver microsomes assessed as formation of (E)-3-(3-(11,2,4)triazolo(1,5-alpyridin-6-y1)-5-((4-methylbenzy1)-carbamoyl)phenyl)acrylic acid over 60 mins; type: ADME, Microsome; details: 1 h
[21] = Prodrug conversion in mouse liver microsomes assessed as formation of (E)-3-(3-(11,2,4)triazolo(1,5-alpyridin-6-y1)-5-((4-methylbenzy1)-carbamoyl)phenyl)acrylic acid over 60 mins; type: ADME, Microsome; details: 1 h
[22] = Half life in BALB/c mouse assessed as (E)-3-(3-(11,2,4)triazolo(1,5-alpyridin-6-y1)-5-((4-methylbenzy1)-carbamoyl)phenyl)acrylic acid at 10 mg/kg, po measured upto 24 hrs; type: ADME, organism-based; details: in vivo
[23] = Tmax in BALB/c mouse assessed as (E)-3-(3-(11,2,4)triazolo(1,5-alpyridin-6-y1)-5-((4-methylbenzy1)-carbamoyl)phenyl)acrylic acid at 10 mg/kg, po measured upto 24 hrs; type: ADME, organism-based; details: in vivo
[24] = Cmax in BALB/c mouse assessed as (E)-3-(3-(11,2,4)triazolo(1,5-alpyridin-6-y1)-5-((4-methylbenzy1)-carbamoyl)phenyl)acrylic acid at 10 mg/kg, po measured upto 24 hrs; type: ADME, organism-based; parameters: dose 10 mg/kg, time < 24 hrs, route po; details: in vivo
[25] = AUC (0 to t) in BALB/c mouse assessed as (E)-3-(3-(11,2,4)triazolo(1,5-alpyridin-6-y1)-5-((4-methylbenzy1)-carbamoyl)phenyl)acrylic acid at 10 mg/kg, po measured upto 24 hrs; type: ADME, organism-based; parameters: dose 10 mg/kg, time < 24 hrs, route po; details: in vivo
[26] = AUC (0 to infinity) in BALB/c mouse assessed as (E)-3-(3-(11,2,4)triazolo(1,5-alpyridin-6-y1)-5-((4-methylbenzy1)-carbamoyl)phenyl)acrylic acid at 10 mg/kg, po measured upto 24 hrs; type: ADME, organism-based; parameters: time < 24 hrs, dose 10 mg/kg, route po; details: in vivo
CWR22R [27] = assay: Antitumor activity against human 22Rv1 cells xenografted in NSG mouse tumor model assessed as reduction in tumor volume at 25 mg/kg, ip treated for 26 days relative to control; type: functional; details: 22Rv1, 624 h, time 26 day
CWR22R [28] = assay: Antitumor activity against human 22Rv1 cells xenografted in NSG mouse tumor model assessed as reduction in tumor volume at 50 mg/kg, ip treated for 26 days relative to control; type: functional; details: 22Rv1, 624 h, time 26 day
[29] = Toxicity in NSG mouse xenografted with human 22Rv1 cells assessed as body weight loss at 25 to 50 mg/kg, ip treated for 26 days; type: organism-based, CWR22R; details: in vivo, 624 h, dose 25-50 mg/kg, time 26 day

SMILES: CC(C)=CCOc1cc(/C=C/C(=O)O)cc(C(=O)NCc2ccc(C)cc2)c1
Ratio IC50 (Homo sapiens): 187

SMILES: Cc1ccc(CNC(=O)c2cc(/C=C/C(=O)O)cc(-c3ccc(CN4CCOCC4)c(F)c3)c2)cc1
Ratio IC50 (Homo sapiens): 16

SMILES: CN(CCC(=O)O)C(=O)c1ccc2c(c1)CC[C@@H]1[C@@H]2CC[C@]2(C)C(c3cncc(F)c3)=CC[C@@H]12
IC50 [14]: 0.0018 µM

SMILES: Cc1ccc(CNC(=O)c2cc(C#CC3CC3)cc(/C=C/C(=O)O)c2)cc1
Ratio IC50 (Homo sapiens): 74

SMILES: Cc1ccc(CNC(=O)c2cc(/C=C/C#N)cc(-c3ccc(Oc4ccccc4)cc3)c2)cc1
IC50 [15]: 1.4 µM

SMILES: Cc1ccc(CNC(=O)c2cc(/C=C/C(=O)O)cc(-c3ccc4c(c3)OCO4)c2)cc1
IC50 [1]: > 100 µM

SMILES: CC[C@@H](NC(=O)c1cc(/C=C/C(=O)O)cc(-c2ccc(C(C)C)cc2)c1)c1ccccc1
Ratio IC50 (Homo sapiens): 51

SMILES: C/C=C\Cc1cc(/C=C/C(=O)O)cc(C(=O)NCc2ccc(C)cc2)c1
Ratio IC50 (Homo sapiens): 200

SMILES: C/C=C/Cc1cc(/C=C/C(=O)O)cc(C(=O)NCc2ccc(C)cc2)c1
IC50 [1]: > 100 µM | Ratio IC50 (Homo sapiens): 354

SMILES: CC(C)=CCc1cc(/C=C/C#N)cc(C(=O)NCc2ccc(C)cc2)c1
IC50 [15]: 2.7 µM

SMILES: COC(=O)/C=C/c1cc(C(=O)NCc2ccc(C)cc2)cc(-c2ccc3ncnn3c2)c1
Stability [3]: Stable | Stability [4]: Stable | Drug metabolism [16]: Metabolite_Detected | Stability [17]: Unstable | metabolised [18]: 25% | metabolised [19]: 25% | Drug metabolism [20]: Metabolite_Detected | Drug metabolism [21]: Metabolite_Detected | t1/2 [22]: 534 min | Tmax [6]: 19 min | Tmax [23]: 12 min | Cmax [7]: 92.796 ng/mL | Cmax [24]: 11599.4 ng/mL | AUCt [8]: 36.416 ng·h/mL | AUCt [25]: 6382.8 ng·h/mL | AUC [26]: 6550.1 ng·h/mL | inhibition in vivo at 25 mg/kg (CWR22R [27]): 30% | inhibition in vivo at 50 mg/kg (CWR22R [28]): 45% | Activity [29]: Non-Toxic

Further lines, results first:

Ratio IC50 (Homo sapiens): 61
SMILES: Cc1ccc(CNC(=O)c2cc(C#Cc3ccccc3)cc(/C=C/C(=O)O)c2)cc1

Ratio IC50 (Homo sapiens): 51
SMILES: Cc1ccc(CNC(=O)c2cc(/C=C/C(=O)O)cc(-c3ccc(Oc4ccccc4)cc3)c2)cc1

Ratio IC50 (Homo sapiens): 580
SMILES: Cc1ccc(CNC(=O)c2cc(/C=C/C(=O)O)cc(-c3ccc(-c4ccccc4)cc3)c2)cc1

IC50 [1]: > 100 µM | Ratio IC50 (Homo sapiens): 960
SMILES: Cc1ccc(CNC(=O)c2cc(/C=C/C(=O)O)cc(-c3cccc(F)c3)c2)cc1

IC50 [1]: > 100 µM | Ratio IC50 (Homo sapiens): 333
SMILES: Cc1ccc(CNC(=O)c2cc(/C=C/C(=O)O)cc(-c3ccc(Cl)cc3)c2)cc1

Ratio IC50 (Homo sapiens): 160
SMILES: Cc1ccc(CNC(=O)c2cc(/C=C/C(=O)O)cc(-c3ccc(C)cc3)c2)cc1

IC50 [1]: > 100 µM | Ratio IC50 (Homo sapiens): 1220 | inhibition [2]: 8% | Stability [3]: Stable | Stability [4]: Stable | t1/2 [5]: 864 min | Tmax [6]: 6 min | Cmax [7]: 174.8 ng/mL | AUCt [8]: 367.6 ng·h/mL | AUC [9]: 515.1 ng·h/mL | %AUCextra [10]: 28.8% | Vz/F [11]: 405 L/kg | CL/F [12]: 323 mL/min/kg
SMILES: Cc1ccc(CNC(=O)c2cc(/C=C/C(=O)O)cc(-c3ccc4ncnn4c3)c2)cc1

IC50 [1]: > 100 µM | Ratio IC50 (Homo sapiens): 600
SMILES: Cc1ccc(CNC(=O)c2cc(/C=C/C(=O)O)cc(-c3ccc(F)cc3)c2)cc1

Ratio IC50 (Homo sapiens): 109
SMILES: Cc1ccc(CNC(=O)c2cc(/C=C/C(=O)O)cc(-c3ccc4cccnc4c3)c2)cc1

Ratio IC50 (Homo sapiens): 177
SMILES: Cc1ccc(CNC(=O)c2cc(/C=C/C(=O)O)cc(CC(C)c3ccccc3)c2)cc1 (centres undefined)

IC50 [1]: > 100 µM | IC50 [13]: > 100 µM | Ratio IC50 (Homo sapiens): > 2500
SMILES: Cc1ccc(CNC(=O)c2cc(/C=C/C(=O)O)cc(-c3ccccc3)c2)cc1

Ratio IC50 (Homo sapiens): 133
SMILES: Cc1ccc(CNC(=O)c2cc(/C=C/C(=O)O)cc(-c3ccc4nccnc4c3)c2)cc1

IC50 [1]: > 100 µM | IC50 [13]: > 100 µM | Ratio IC50 (Homo sapiens): > 333
SMILES: Cc1ccc(CNC(=O)c2cc(Br)cc(/C=C/C(=O)O)c2)cc1

Ratio IC50 (Homo sapiens): 140
SMILES: Cc1ccc(CNC(=O)c2cc(/C=C/C(=O)O)cc(-c3ccc4ccccc4c3)c2)cc1

IC50 [1]: > 100 µM | Ratio IC50 (Homo sapiens): 200
SMILES: Cc1ccc(CNC(=O)c2cc(/C=C/C(=O)O)cc(-c3ccc4c(c3)OCCO4)c2)cc1

Ratio IC50 (Homo sapiens): 221
SMILES: Cc1ccc(CNC(=O)c2cc(/C=C/C(=O)O)cc(-c3ccc(-n4c5ccccc5c5ccccc54)cc3)c2)cc1

IC50 [1]: > 100 µM | IC50 [13]: > 100 µM | Ratio IC50 (Homo sapiens): > 1430
SMILES: Cc1ccc(CNC(=O)c2cc(/C=C/C(=O)O)cc(-c3ccccc3F)c2)cc1

— ChEMBL document CHEMBL5346958 (J Med Chem, 2023)
